Results: article PMC9220178, “Preclinical Characterization of Antioxidant Quinolyl Nitrone QN23 as a New Candidate for the Treatment of Ischemic Stroke” (Antioxidants, 2022)

Tests used:
Type in all cases: in vivo, rat
[1] = system: adult male Wistar rats, four-vessel occlusion (4VO) transient forebrain ischemia; test: Neurological deficit score (NDS) after global cerebral ischemia (4VO); conditions: 40 mg/kg i.v.; R5d; times tested 0, 1, 3, 6 h
Procedure: Transient forebrain ischemia was induced in adult male Wistar rats (10–12 weeks, Charles River, L’Arbresle, France) by the standard four-vessel occlusion (4VO) model previously described. Briefly, animals were anesthetized by intraperitoneal injection of a combination of ketamine, diazepam, and atropine (62.5, 5.0, and 0.25 mg/kg, respectively); positioned in a stereotactic device; and both vertebral arteries were cauterized. The next day, anesthesia was induced with 4% isoflurane and maintained at 2–2.5% isoflurane for carotid artery dissection. After anesthesia withdrawal, the carotid arteries were occluded with an atraumatic vascular clamp to induce brain ischemia. During the entire surgical procedure, temperature was monitored at 2 min intervals and kept at 37 °C. After 15 min of ischemia, the carotid arteries were unclamped for brain reperfusion. The animals were studied after 5 days of reperfusion (R5d), or after 11 weeks of reperfusion (long-term studies), and then they were euthanized under deep anesthesia. Animals from the sham control group were handled in the same way, but without occlusion of the carotid arteries. Ischemic animals were treated with vehicle solution (ethanol/polyethylene glycol 400/saline, 1:300:200 v/v), or with nitrones QN23 or NXY-059 in vehicle solution, as a single injection through the tail vein at the onset of reperfusion. For the therapeutic window experiments, the animals were also treated at reperfusion times 1, 3, and 6 h after ischemia. The treatments were prepared by an independent researcher and administered with concealed allocation. Treatments were administered in a randomized order obtained by a computer-based randomization program. […]
After 5 days of post-ischemic reperfusion (R5d), neurological deficits were evaluated in the animals by a researcher blind to the treatment allocation. General status and mobility impairments were quantified according to a scale previously validated in an entire cohort of R5d animals (n = 20). […]

[2] = system: adult male Wistar rats, four-vessel occlusion (4VO) transient forebrain ischemia; test: Neuronal death by Fluoro-Jade B staining after transient global cerebral ischemia (4VO); conditions: 40 mg/kg i.v. at 0, 1, 3 or 6 h of reperfusion; R5d
Procedure: (§1) Transient forebrain ischemia was induced in adult male Wistar rats (10–12 weeks, Charles River, L’Arbresle, France) by the standard four-vessel occlusion (4VO) model previously described. Briefly, animals were anesthetized by intraperitoneal injection of a combination of ketamine, diazepam, and atropine (62.5, 5.0, and 0.25 mg/kg, respectively); positioned in a stereotactic device; and both vertebral arteries were cauterized. The next day, anesthesia was induced with 4% isoflurane and maintained at 2–2.5% isoflurane for carotid artery dissection. After anesthesia withdrawal, the carotid arteries were occluded with an atraumatic vascular clamp to induce brain ischemia. During the entire surgical procedure, temperature was monitored at 2 min intervals and kept at 37 °C. After 15 min of ischemia, the carotid arteries were unclamped for brain reperfusion. The animals were studied after 5 days of reperfusion (R5d), or after 11 weeks of reperfusion (long-term studies), and then they were euthanized under deep anesthesia. Animals from the sham control group were handled in the same way, but without occlusion of the carotid arteries. Ischemic animals were treated with vehicle solution (ethanol/polyethylene glycol 400/saline, 1:300:200 v/v), or with nitrones QN23 or NXY-059 in vehicle solution, as a single injection through the tail vein at the onset of reperfusion. For the therapeutic window experiments, the animals were also treated at reperfusion times 1, 3, and 6 h after ischemia. The treatments were prepared by an independent researcher and administered with concealed allocation. Treatments were administered in a randomized order obtained by a computer-based randomization program. To determine the sample size, a power analysis (http://www.biomath.info/power/ttest.htm, accessed on 12 March 2020) with significance level set at 0.05 and statistical power set at 0.8 (80%) rendered a sample size of <6 subjects per group. A total of 120 ischemic animals (30 animals treated with vehicle, 60 treated with QN23, and 30 treated with NXY-059) and 9 sham control animals were included in these studies. Additionally, 13 animals were excluded from the study: 6 animals were not ischemic and 7 animals died within the 24 h after the surgical procedure (5 vehicles, 1 QN23-treated at 1.0 mg/kg, and 1 QN23-treated at 2.0 mg/kg). The Animal Care Ethics Committee of the Hospital Universitario Ramón y Cajal (Madrid, Spain) authorized all the procedures involving the animal experimentation reported here (authorization number 04/2020). These experiments were performed according to ARRIVE guidelines and the legislation on the protection of animals used for scientific purposes in Spain (RD 53/2013) and the EU (Directive 2010/63/EU). The study was designed and conducted according to the STAIR guidelines regarding physiological monitoring, sample randomization, predefined exclusion criteria, allocation concealment, blinded assessment of outcomes, dose–response definition, and a conflict-of-interest statement.
(§2) After 5 days of reperfusion (R5d), or at 11 weeks of reperfusion in long-term studies, animals were euthanized by transcardiac perfusion via the left ventricle under deep anesthesia. First, blood was washed out with 200 mL of ice-cold saline medium, followed by fixation with 4% (w/v) paraformaldehyde solution in PBS for brain preservation. Then, the brains were carefully removed from the cranial cavity and placed in 4% (w/v) paraformaldehyde solution in PBS overnight at 4 °C. The next day, the brains were sequentially placed in 10%, 20%, and 30% (w/v) sucrose in PBS until sunken, and finally embedded in Tissue-Tek O.C.T. (Sakura Finetek, Torrance, CA, USA) before freezing at −80 °C. Brain coronal sections containing the hippocampus region were obtained by cryostat sectioning at the level of interaural line +5.7 ± 0.2 mm on Real Capillary Gap microscope slides (Agilent Dako, Santa Clara, CA, USA). […]

[3] = system: adult male Wistar rats, four-vessel occlusion (4VO) transient forebrain ischemia; test: Neuronal apoptosis by TUNEL assay after transient global cerebral ischemia (4VO); conditions: 40 mg/kg i.v. at 0, 1, 3 or 6 h of reperfusion; R5d
Procedure: as §1, §2

[4] = system: adult male Wistar rats, four-vessel occlusion (4VO) transient forebrain ischemia; test: Long-term behavioral tests in the Y maze; conditions: 40 mg/kg i.v. at reperfusion onset, 11 weeks after ischemia
Procedure: Long-term assessment of neurological damage after the ischemic episode was performed by the evaluation of the spontaneous exploratory activity (spatial recognition) and spatial memory skills in the Y maze.
For the assessment of the exploratory activity and spatial recognition, control animals and ischemic animals treated with vehicle, QN23, or NXY-059 were placed in the center of the maze and allowed free exploration for 8 min. An independent researcher blind to the treatment allocation registered the total number of arms that the animal entered indistinctly (arm entries), and the times that the animal explored the three different arms of the maze consecutively (alternations or triads).
For the assessment of spatial memory, experiments consisted of two trials. For the first trial (training), control and ischemic animals treated with vehicle or QN23 were placed into one of the arms (start arm) and allowed to explore the Y maze for 10 min with one of the arms closed. One hour after the training trial, the animals were returned to the Y maze and the second trial was conducted. The animals were placed in the same start arm as in the training trial, but now with the remaining two arms of the maze available for exploration for 3 min. A researcher blind to the treatment allocation registered the first choice of arm for entry (novel or old).

Compound: CC(C)(C)[N+]([O-])=Cc1ccc(S(=O)(=O)[O-])cc1S(=O)(=O)[O-].[Na+].[Na+] [NXY-059, reference compound]
- Therapeutic window: administration time after reperfusion onset with significantly reduced NDS [1]: 0 h
- Neuronal death compared with vehicle [2]: did not reduce neuronal death
- Apoptosis reduction compared with vehicle [3]: did not produce a significant effect
- Y maze arm entries (exploratory activity) [4]: fewer arm maze entries
- Y maze alternations (triads completed), spatial recognition ([4]; vehicle 5.0, control 15.75): 5.5
- Percentage of animals exploring the novel arm as a first choice (spatial memory) ([4]; vehicle 17%, control 75%): 50%
